Assay results taken from patent US4578489A (priority 1982, dated 1986).
Where two headings read alike, the source gives them in different places.

Tests used:
Aspergillus phoenicis = experiment: Minimum inhibitory concentration against fungi, agar incorporation test, strain L; type: cell-based; conditions: malt extract/agar
Protocol: (§1) The invention is carried out using the known agar incorporation test in the following fungi:
(L) Aspergillus phoenicis
(§2) in a malt extract/agar (Merck). Inhibition is effected by adding sufficient of each of the various compounds to give final concentrations in the agar of 2, 5, 10, 50 and 100 mg/liter. The concentrations (mg/liters) required to inhibit the growth of the fungi (starting from traces of fungi added dropwise) are illustrated in Table 3.

[1] = tested on: Enteromorpha intestinalis; experiment: Action against Enteromorpha intestinalis: inhibitory concentration (MIC); type: in vivo; conditions: seawater containing biocide for entire test; concentration tested 0.5 mg/liter
Protocol: (§3) The action against the green alga Enteromorpha, which is the most important in seawter fouling, is investigated in sterile-filtered seawater containing an Erd-Schreiber solution. This solution is composed of a nutrient extract, phosphate and nitrate. The incubation of Enteromorpha intestinalis is carried out in a light thermostat at 18° C. under an alternation of 14 hours of light and 10 hours of darkness.
For determining the inhibitory concentration (MIC), the algae are kept in seawater containing biocide for the entire duration of the test (concentration tested: 0.5 mg/liter).

Bacillus subtilis = experiment: Minimum inhibitory concentration against bacteria, strain F; type: cell-based; conditions: 24 hours at 30° C.; tested at 100 and 300 mg/liter
Protocol: (§4) Overnight cultures, grown in Caso peptone bouillon (Merck) of the various strains of bacteria: (A) Proteus vulgaris, (B) Pseudomonas aeruginosa, (C) Enterobacter aerogenes, (D) Serratia marcencens, (E) Alcaligenes denitrificans and (F) Bacillus subtilis are each diluted in a ratio of 1/1000 in saline solution. Sufficient of the suspensions is put into Caso peptone bouillon to dilute the bacteria again in the ratio of 1/1000. Each of the compounds listed in Table 1 is then added in amounts of 100 and 300 mg/liter. After being incubated for 24 hours at 30° C. in a shaking waterbath, the turbidity of the samples is evaluated.

Enterobacter aerogenes = experiment: Minimum inhibitory concentration against bacteria, strain C; type: cell-based; conditions: 24 hours at 30° C.; tested at 100 and 300 mg/liter
Protocol: as §4

Artemia salina = experiment: Action against Artemia salina nauplii; type: in vivo; parameters: key: 0: no change; 1: slight change; 1-2: animals are attacked; 2: animals are strongly attacked; 2-3: animals are nearly all dead; 3: animals are all dead
Protocol: The eggs, which are available commercially, are caused to hatch by vigorous aeration. When 2-3 days old, the nauplii are exposed to the products at various concentrations (concentrations tested: 2.5; 1; 0.5 and 0.25 mg/liter) in synthetic seawater, and are observed over a prolonged period of time.

Pseudomonas aeruginosa = experiment: Minimum inhibitory concentration against bacteria, strain B; type: cell-based; conditions: 24 hours at 30° C.; tested at 100 and 300 mg/liter
Protocol: as §4

Aspergillus niger = experiment: Minimum inhibitory concentration against fungi, agar incorporation test, strain K; type: cell-based; conditions: malt extract/agar
Protocol: as §1, §2

Candida albicans = experiment: Minimum inhibitory concentration against fungi, agar incorporation test, strain P; type: cell-based; conditions: malt extract/agar
Protocol: as §1, §2

Proteus vulgaris = experiment: Minimum inhibitory concentration against bacteria, strain A; type: cell-based; conditions: 24 hours at 30° C.; tested at 100 and 300 mg/liter
Protocol: as §4

[2] = tested on: Cladosporium cladosporioides; experiment: Minimum inhibitory concentration against fungi, agar incorporation test, strain O; type: cell-based; conditions: malt extract/agar
Protocol: as §1
(O) Cladosporium cladosporioides
as §2

Chaetomium globosum = experiment: Minimum inhibitory concentration against fungi, agar incorporation test, strain S; type: cell-based; conditions: malt extract/agar
Protocol: as §1, §2

Chlorella vulgaris = experiment: Action against algae: Chlorella vulgaris; type: cell-based; parameters: key: --: no growth on the agar, 3 ppm have destroyed the algae in 6 hours; conditions: 3 mg/liter; for Growth on the agar (algae-destroying action): 6 hours exposure, 14 days incubation; for Growth in the medium (growth inhibition): 14 days
Protocol: Cultures of Chlorella vulgaris which had been grown for 14 days in algae nutrient media are diluted in the ratio 1/200 in the algae nutrient medium. Each of the compounds listed in Table 1 is then added in such an amount as to give a final concentration of 3 mg/liter. After incubating for 6 hours, 10 μl of each culture are withdrawn and added dropwise to algae/agar in order to determine the destructive action. After the cultures have incubated for 14 days under illumination (14 hours of light and 10 hours of darkness, alternately), the growth in the algae medium (determination of growth inhibition) and on the algae/agar (determination of algae-destroying action) is assessed visually.

Alternaria alternata = experiment: Minimum inhibitory concentration against fungi, agar incorporation test, strain N; type: cell-based; conditions: malt extract/agar
Protocol: as §1, §2

Endomyces geotrichum = experiment: Minimum inhibitory concentration against fungi, agar incorporation test, strain Q; type: cell-based; conditions: malt extract/agar
Protocol: as §1, §2

Penicillium funiculosum = experiment: Minimum inhibitory concentration against fungi, agar incorporation test, strain M; type: cell-based; conditions: malt extract/agar
Protocol: as §1
(M) Penicillium funiculosum
as §2

Serratia marcencens = experiment: Minimum inhibitory concentration against bacteria, strain D; type: cell-based; conditions: 24 hours at 30° C.; tested at 100 and 300 mg/liter
Protocol: as §4

[3] = tested on: Alcaligenes denitrificans; experiment: Minimum inhibitory concentration against bacteria, strain E; type: cell-based; conditions: 24 hours at 30° C.; tested at 100 and 300 mg/liter
Protocol: as §4

Aureobasidium pullulans = experiment: Minimum inhibitory concentration against fungi, agar incorporation test, strain R; type: cell-based; conditions: malt extract/agar
Protocol: as §1
(R) Aureobasidium pullulans
as §2

[4] = tested on: Enteromorpha intestinalis; experiment: Action against Enteromorpha intestinalis: destruction (minimum killing concentration); type: in vivo; conditions: 4 hours in seawater, then 6-8 weeks in fresh seawater
Protocol: as §3
The algae which have been cultured in this way are exposed to the products under investigation for a short time (4 hours) in seawater. The minimum killing concentration (MKC) is determined by taking the algae out of the seawater containing a specific quantity of algicide, after the treatment time in the latter, washing the algae and investigating growth or mortality after incubation in fresh seawater for a further period of 6-8 weeks.
The minimum killing concentration (MKC) indicates the amount of substance required to cause such damage to the algae within a specific time that they can no longer recover in fresh seawater and die out.

[5] = tested on: mixed culture of bacteria; type: cell-based; parameters: key: +: growth, no destruction; (+): growth less than that of control (>10 colonies), slight destruction; (-): slight growth (1-10 colonies); -: no growth, destruction
[6] = 5 mg/l, culture diluted 1/1000 in Tyrode
[7] = 5 mg/l, culture diluted 1/10000 in Tyrode
[8] = 10 mg/l, culture diluted 1/1000 in Tyrode
[9] = 10 mg/l, culture diluted 1/10000 in Tyrode
[10] = 30 mg/l, culture diluted 1/1000 in Tyrode
[11] = 30 mg/l, culture diluted 1/10000 in Tyrode
[12] = 60 mg/l, culture diluted 1/1000 in Tyrode
[13] = 60 mg/l, culture diluted 1/10000 in Tyrode
[14] = 100 mg/l, culture diluted 1/1000 in Tyrode
[15] = 100 mg/l, culture diluted 1/10000 in Tyrode

CCCCCCCCCCCCCCCC[n+]1ccccc1.CCC[CH2][Sn-]([Cl])([Cl])([CH2]CCC)[CH2]CCC [Example 7, Pyridine-Nhexadecyl / Tributyldichloro]
MIC against fungi, strain L (Aspergillus phoenicis): 10 µg/mL
MIC [1]: 0.5 µg/mL
MIC against bacteria, strain F (Bacillus subtilis): 100 µg/mL
MIC against bacteria, strain C (Enterobacter aerogenes): 100 µg/mL
Action against Artemia salina (Artemia salina; 0,5 mg/l, 6 hours): 1-2
Action against Artemia salina (Artemia salina; 0,5 mg/l, 24 hours): 2
Action against Artemia salina (Artemia salina; 0,5 mg/l, 48 hours): 3
Action against Artemia salina (Artemia salina; 0,25 mg/l, 6 hours): 0-1
Action against Artemia salina (Artemia salina; 0,25 mg/l, 24 hours): 2
Action against Artemia salina (Artemia salina; 0,25 mg/l, 48 hours): 2-3
Action against Artemia salina (Artemia salina; 1 mg/l, 6 hours): 2
Action against Artemia salina (Artemia salina; 1 mg/l, 24 hours): 3
Action against Artemia salina (Artemia salina; 1 mg/l, 48 hours): 3
Action against Artemia salina (Artemia salina; 2,5 mg/l, 6 hours): 2-3
Action against Artemia salina (Artemia salina; 2,5 mg/l, 24 hours): 3
Action against Artemia salina (Artemia salina; 2,5 mg/l, 48 hours): 3
MIC against bacteria, strain B (Pseudomonas aeruginosa): 100 µg/mL
MIC against fungi, strain K (Aspergillus niger): 2 µg/mL
MIC against fungi, strain P (Candida albicans): 5 µg/mL
MIC against bacteria, strain A (Proteus vulgaris): 100 µg/mL
MIC against fungi, strain O [2]: 2 µg/mL
MIC against fungi, strain S (Chaetomium globosum): 2 µg/mL
Growth on the agar (algae-destroying action) (Chlorella vulgaris): --
Growth in the medium (growth inhibition) (Chlorella vulgaris): --
MIC against fungi, strain N (Alternaria alternata): 5 µg/mL
MIC against fungi, strain Q (Endomyces geotrichum): 5 µg/mL
MIC against fungi, strain M (Penicillium funiculosum): 10 µg/mL
MIC against bacteria, strain D (Serratia marcencens): 100 µg/mL
MIC against bacteria, strain E [3]: 100 µg/mL
MIC against fungi, strain R (Aureobasidium pullulans): 2 µg/mL
Destruction, 5 mg/liter [4]: yes
Growth (destruction of a mixed culture of bacteria) [5, 6]: +
Growth (destruction of a mixed culture of bacteria) [5, 7]: +
Growth (destruction of a mixed culture of bacteria) [5, 8]: +
Growth (destruction of a mixed culture of bacteria) [5, 9]: (+) (growth less than that of control (>10 colonies), slight destruction)
Growth (destruction of a mixed culture of bacteria) [5, 10]: (+) (growth less than that of control (>10 colonies), slight destruction)
Growth (destruction of a mixed culture of bacteria) [5, 11]: (-) (slight growth (1-10 colonies))
Growth (destruction of a mixed culture of bacteria) [5, 12]: -
Growth (destruction of a mixed culture of bacteria) [5, 13]: -
Growth (destruction of a mixed culture of bacteria) [5, 14]: -
Growth (destruction of a mixed culture of bacteria) [5, 15]: -

CCCCCCCCCC[N+](C)(C)CCCCCCCCCC.CCC[CH2][Sn-]([Cl])([Cl])([CH2]CCC)[CH2]CCC [Example 4, dimethyl-didecylammonium tributyldichlorostannate-(IV)]
MIC against fungi, strain L (Aspergillus phoenicis): 5 µg/mL
MIC [1]: 0.5 µg/mL
MIC against bacteria, strain F (Bacillus subtilis): 100 µg/mL
MIC against bacteria, strain C (Enterobacter aerogenes): 100 µg/mL
Action against Artemia salina (Artemia salina; 0,5 mg/l, 6 hours): 1-3
Action against Artemia salina (Artemia salina; 0,5 mg/l, 24 hours): 2-3
Action against Artemia salina (Artemia salina; 0,5 mg/l, 48 hours): 3
Action against Artemia salina (Artemia salina; 0,25 mg/l, 6 hours): 0-1
Action against Artemia salina (Artemia salina; 0,25 mg/l, 24 hours): 2
Action against Artemia salina (Artemia salina; 0,25 mg/l, 48 hours): 2
Action against Artemia salina (Artemia salina; 1 mg/l, 6 hours): 2-3
Action against Artemia salina (Artemia salina; 1 mg/l, 24 hours): 3
Action against Artemia salina (Artemia salina; 1 mg/l, 48 hours): 3
Action against Artemia salina (Artemia salina; 2,5 mg/l, 6 hours): 2-3
Action against Artemia salina (Artemia salina; 2,5 mg/l, 24 hours): 3
Action against Artemia salina (Artemia salina; 2,5 mg/l, 48 hours): 3
MIC against bacteria, strain B (Pseudomonas aeruginosa): 100 µg/mL
MIC against fungi, strain K (Aspergillus niger): 2 µg/mL
MIC against fungi, strain P (Candida albicans): 5 µg/mL
MIC against bacteria, strain A (Proteus vulgaris): 100 µg/mL
MIC against fungi, strain O [2]: 5 µg/mL
MIC against fungi, strain S (Chaetomium globosum): 2 µg/mL
Growth on the agar (algae-destroying action) (Chlorella vulgaris): --
Growth in the medium (growth inhibition) (Chlorella vulgaris): --
MIC against fungi, strain N (Alternaria alternata): 2 µg/mL
MIC against fungi, strain Q (Endomyces geotrichum): 5 µg/mL
MIC against fungi, strain M (Penicillium funiculosum): 5 µg/mL
MIC against bacteria, strain D (Serratia marcencens): 100 µg/mL
MIC against bacteria, strain E [3]: 100 µg/mL
MIC against fungi, strain R (Aureobasidium pullulans): 2 µg/mL
Destruction, 5 mg/liter [4]: yes
Growth (destruction of a mixed culture of bacteria) [5, 6]: +
Growth (destruction of a mixed culture of bacteria) [5, 7]: +
Growth (destruction of a mixed culture of bacteria) [5, 8]: +
Growth (destruction of a mixed culture of bacteria) [5, 9]: (+) (growth less than that of control (>10 colonies), slight destruction)
Growth (destruction of a mixed culture of bacteria) [5, 10]: +
Growth (destruction of a mixed culture of bacteria) [5, 11]: -
Growth (destruction of a mixed culture of bacteria) [5, 12]: (+) (growth less than that of control (>10 colonies), slight destruction)
Growth (destruction of a mixed culture of bacteria) [5, 13]: -
Growth (destruction of a mixed culture of bacteria) [5, 14]: (+) (growth less than that of control (>10 colonies), slight destruction)
Growth (destruction of a mixed culture of bacteria) [5, 15]: -
